According to EP3658131B1, “COMPOSITION FOR THE TREATMENT OF BACTERIAL VAGINOSIS” (Farma-Derma S.R.L., priority 2017, dated 2019):

Legend:
Format in all cases: cell-based
[1] = system: Gardnerella vaginalis ATCC 11418 + Lactobacillus Acidophilus ATCCC 4356; assay: Survival/growth of lactobacilli in metabolic competition with a pathogenic strain (Test 2); details: for Reduction in microbial load with respect to the negative control: values only refer to the lactobacilli, negative value = growth
Method: The selectivity of the compostion is verified by evaluating the survival ability of the Lactobacillus Acidophilus in the presence and absence of another bacterial strain in metabolic competition.
(§1) 3 different mixtures of substances were prepared whose composition is described below: − MD(5mg) + AL(90%,11mg) [formula] − DQC(8mg) [formula] − DQC(8mg) + MD(5mg) + AL(90%,11mg) [formula]
(§2) To evaluate the antibacterial efficacy of the ingredients in the three compositions described above, the pure raw materials directly dissolved in the culture medium were tested. Aliquots of the 3 mixtures were prepared for each of the bacterial strains being evaluated. Each mixture was placed in a receptacle containing a suitable volume of a peptone water solution with pH 5.5 having a concentration of the bacterial strain equal to at least 10^5 CFU/ml.
(§3) Each container was placed in incubation at 37°C for 4 hours to promote the dissolution and the action of the ingredients. A negative control was prepared for each strain i.e. a solution without the presence of the substances being tested, which is treated in the same experimental conditions as the receptacles containing the mixtures being tested.
(§4) At the end of the incubation period the contents of each container were neutralised and seeded in a suitable culture medium, the micro-organisms that had grown were counted. Each seeding was performed in triplicate.

[2] = system: Lactobacillus Acidophilus ATCCC 4356; assay: Survival/growth of lactobacilli after incubation with the mixtures (Test 2); details: 4 hours at 37°C
Method: as §1, §2, §3, §4

[3] = system: Prevotella loescheii ATCC 15930; assay: Reduction of microbial load after incubation with the mixtures (Test 2); details: 4 hours at 37°C
Method: as §1, §2, §3, §4

[4] = system: Gardnerella vaginalis ATCC 11418; assay: as above; details: 4 hours at 37°C
Method: as §1, §2, §3, §4

[5] = system: Escherichia coli ATCC 8739; assay: as above; details: 4 hours at 37°C
Method: as §1, §2, §3, §4

[6] = system: Staphylococcus aureus ATCC 6538; assay: as above; details: 4 hours at 37°C
Method: as §1, §2, §3, §4

[7] = peptone water pH 5.5, at least 10^5 CFU/ml, mean of 3 replicates

Structure (SMILES): Cc1cc(N)c2ccccc2[n+]1CCCCCCCCCC[n+]1c(C)cc(N)c2ccccc21 [DQC, dequalinium chloride]
- Microbial load ([1]; values only refer to the lactobacilli (selective media), 4 hours at 37°C, pH 5.5, mean of 3 replicates): 1,400 CFU/ml
- Reduction in microbial load with respect to the negative control [1]: 60.00%
- Reduction in microbial load with respect to the negative control ([1]; listed as dequalinium): 60.00%
- Microbial load [2, 7]: 5,267 CFU/ml
- Reduction in microbial load with respect to the negative control ([2]; peptone water pH 5.5, negative value = growth): 96.18%
- Reduction in microbial load with respect to the negative control ([3]; peptone water pH 5.5): 90.56%
- Microbial load [3, 7]: 3,367 CFU/ml
- Reduction in microbial load with respect to the negative control ([4]; peptone water pH 5.5): 74.31%
- Microbial load [4, 7]: 4,205 CFU/ml
- Reduction in microbial load with respect to the negative control ([5]; peptone water pH 5.5): 50.60%
- Microbial load [5, 7]: 1,037,400 CFU/ml
- Reduction in microbial load with respect to the negative control ([6]; peptone water pH 5.5): 60.00%
- Microbial load [6, 7]: 14,267 CFU/ml
